Here are results for one compound from patent US20210177722A1, “Phytic Acid Ester Derivative” (NATIONAL UNIVERSITY CORPORATION KUMAMOTO UNIVERSITY, priority 2018, published 2021).

Each structure is given as a SMILES string.

Data set [1] concerns K562 cell (chronic myelogenous leukemia cell). In words: MTT assay, K562 cell. Format: cell-based. The note with it: 1 μM or 10 μM, 8 hours or 24 hours. As for the experimental part:
(§1) In this example, the cytotoxic effect of Pro-IP6 on four types of blood cancer cell lines and a cell derived from a healthy person was examined by MTT assay. […] It is possible to check viability of cultured cells by MTT assay. Cancer cell lines (1.74×10^4 cells/well, culture fluid: 200 μL) • MT-2 cell (HTLV transformed human T cell leukemia cell) • […] cell (human T-lymphoblastoid cell) • Jurkat cell (human T-lymphocyte cell) • K562 cell (chronic myelogenous leukemia cell) Each of the above-described types of cells was seeded in a 96-well plate, and was cultured for 8 hours for each of the various cancer cell lines and for 16 hours for PMBC. Thereafter, DMSO (1%, Fujifilm Wako Pure Chemical Corporation), an aqueous solution (1%) of IP6 (final concentration: 1 μM or 10 μM, Sigma Aldrich), or a DMSO solution (1%) of Pro-IP6 (final concentration: 1 μM or 10 μM) was added thereto, followed by culturing for 8 hours or 24 hours. An MTT reagent (Dojindo Laboratories, 1.1 mg/mL) was added in an amount of 50 μL per well, and the resultant was cultured for another 4 hours. The thus precipitated crystal was collected, a supernatant was removed, and 100 μL of DMSO was added thereto to completely dissolve. The resultant solution was measured for an absorbance (550 nm).
Background: Tetrazolium assays rely on reduction of a dye to a coloured formazan, in cell work by metabolically active cells.

Data set [2] has as its system S1T cell (ATL cell line) tumor. The data set can be described thus: Effect on HTLV-1 infected cell-transplanted mouse (ATL model). The format is in vivo. The note with it: day 28 after transplantation, 7.1 mg/kg per day intraperitoneally for 28 days, NSG mice with S1T cells. The source says: In this example, the in vivo effect of Pro-IP6 on an HTLV-1 infected cell-transplanted mouse was checked. HTLV-1 (human T cell leukemia virus 1) mainly infects CD4-positive T lymphocyte, and when the infected cell cancerates, refractory malignant tumor, adult T-cell leukemia (ATL) is caused. In this example, S1T cell, that is, one of ATL cell lines, was used.
5-Week-old female NSG mice (NOD. Cg-Prkdc scid I12rg tm1Wjl/SzJ, Charles River Laboratories Japan, Inc.) were used. Five mice each in each of two cages, namely, ten mice in total, were raised with sterilized bedding (Pepar Clean: Japan SLC, Inc.) placed in a sterilized cage (Clea Japan, Inc.). […]
The control group was dosed with DMSO, and the IP6 administration group and the pro-IP6 administration group were intraperitoneally dosed respectively with IP6 in an amount of 7.1 mg/kg and pro-IP6 in an amount of 20 mg/kg. The mice were dosed continuously for 28 days after the day of the cell transplantation, and the weight and the tumor volume of each mouse were measured every day. The tumor volume was defined as (shorter diameter in mm)^2×(longer diameter in mm)×0.5, and the shorter diameter and the longer diameter were measured with a caliper. […] Subsequently, the tumor was totally removed, and the tumor volume and the tumor weight of each tumor were measured.

The next data set concerns HeLa cell. The data set can be described thus: Quantitative determination of IP6 in cell (LC/MS of IP6 methyl ester). The format is cell-based. The conditions noted are these: HeLa cells, 10 μM, 30 minutes. As for the experimental part:
In this example, incorporation of Pro-IP6 into a HeLa cell was quantitatively determined.
HeLa cells (5×10^5 cells/well, culture fluid: 1 mL) were seeded in a 3.5 cm dish to be cultured for 24 hours. Thereafter, DMSO (1%, Fujifilm Wako Pure Chemical Corporation), an aqueous solution (1%) of IP6 (final concentration: 10 μM, Sigma Aldrich), or a DMSO solution (1%) of Pro-IP6 (final concentration: 10 μM) synthesized in Example 1 was added thereto, and the resultant was cultured for another 30 minutes. HeLa cells were cultured with neither IP6 nor Pro-IP6 added, followed by adding the same amount of DMSO thereto, and the resultant was used as a negative control.
Thereafter, the resultant was washed with 1× PBS (−) once, and the resultant cells were scraped with a cell scraper, transferred to a 1.5 mL tube, and washed with 1× PBS (−) three times. To the thus obtained precipitate, 350 μl of MeOH (Fujifilm Wako Pure Chemical Corporation) and 1% NP-40 (Nacalai Tesque, Inc.) were added, followed by sonication (10 minutes). After equilibrating a column (Oasis WAX 1cc, Waters) with MeOH (1 mL) and H2O (1 mL), a disrupted cell extract was added thereto. Thereafter, the column was washed with 50% MeOH (1 mL), and eluted with 50% MeOH (200 μL×2) containing 2 mol/L of HCl (Fujifilm Wako Pure Chemical Corporation). The thus obtained eluate was concentrated, and dissolved in MeOH (50 μL), and trimethylsilyldiazomethane (200 μl, Tokyo Chemical Industry Co., Ltd.) was added thereto, followed by stirring at 50° C. for 1 hour under argon atmosphere. The reaction was stopped by adding H2O (100 μL). Through a reaction of trimethylsilyidiazomethane with IP6, IP6 methyl ester is obtained.
The thus obtained sample (IP6 methyl ester) was measured by LC/MS [column: MastroC18 2.1 mm×100 mm, […] (Shimadzu GLC Ltd.), mobile phase: 0.1% formic acid solution (Fujifilm Wako Pure Chemical Corporation), acetonitrile (Fujifilm Wako Pure Chemical Corporation)] [LC:LC-20AD (Shimadzu), MS: amaZon speed (BRUKER)].

In data set [3] the test system is Jurkat cell (human T-lymphocyte cell). The data set can be described thus: MTT assay, Jurkat cell. The format is cell-based. The note with it: Jurkat cell, 1 μM or 10 μM, 8 hours or 24 hours. As for the experimental part:
as §1

Data set [4] deals with M8166 cell (human T-lymphoblastoid cell). In words: MTT assay, M8166 cell. The conditions noted are these: M8166 cell, 1 μM or 10 μM, 8 hours or 24 hours. Format: cell-based. As for the experimental part: as §1
The subject of data set [5] is MT-2 cell (HTLV transformed human T cell leukemia cell). The data set can be described thus: MTT assay, MT-2 cell. Format: cell-based. The note with it: 1 μM or 10 μM, 8 hours or 24 hours. The protocol: as §1

For `O=P(O)(O)O[C@H]1[C@H](OP(=O)(O)O)[C@@H](OP(=O)(O)O)[C@H](OP(=O)(O)O)[C@@H](OP(=O)(O)O)[C@H]1OP(=O)(O)O` [IP6, myo-inostiol-1,2,3,4,5,6-hexaphosphate, reference compound], the cytotoxic effect entry in data set [1], in data set [3], in data set [4] and in data set [5] was “minimally exhibited the effect” each time. The “tumor volume compared with that of the control group” value in data set [2] is “not significantly different”. Besides, in the data set with HeLa cell, the “incorporation into HeLa cell (IP6 methyl ester by LC/MS vs negative control)” value is reported as “substantially the same as that of the negative control”.
